This note sets out measurements from patent US7507792B2, “MDA-7 proteins and methods of use thereof” (The Trustees of Columbia University In The City of New York, priority 1993, dated 2009).

Entries after “also recorded” stand apart in the source; their conditions may differ.

What all share (assay type): cell-based, human
Test [1] relates to MDA-6 (WAF1/CIP1/SDI1) protein. Briefly: Immunoprecipitation of MDA-6 (WAF1/CIP1/SDI1) protein in HL-60 cells. Conditions: TPA, DMSO (1%) or RA (1 μM), 12, 24, 48 and 72 h tested. As for the experimental part:
Immunoprecipitation analyses were performed as described previously (Duigou et al., 1991; Su et al. 1993). Logarithmically growing HL-60 cells were either untreated or treated for 12, 24, 48 or 72 h with TPA ([…]), RA (1 μM) or DMSO (1%) in 10-cm plates. Cultures were starved of methionine for 1 h at 37° C. in methionine-free medium, cells were concentrated by pelleting and labeled for 4 h at 37° C. in 1 ml of the same medium with 100 μCi of [^35S] (NEN; Express ^35S). After labeling, the cells were washed twice with ice-cold phosphate-buffered saline and lysed for 1 h on ice by the addition of RIPC (20 mM Tris-base, pH 7.5, 500 mM NaCl, 0.05% Nonidet P-40, 100 μg/ml phenylmethylsulfonyl fluoride and 0.02% sodium azide). The lysate was clarified by centrifugation in an Eppendorf microfuge at 10,000×g for 10 min at 4° C. Samples containing 4×10^6 counts were incubated with 2 μg of WAF1/CIP1 (C-19) (Santa Cruz Biotechnology) (or MDA-6 peptide-derived) rabbit polyclonal IgG or actin monoclonal antibody (Oncogene Sciences) with rocking at 4° C. for 24 h. The next day, 30 μl (packed volume) of protein G-agarose (Oncogene Sciences) was added to each tube, and incubation with rocking at 4° C. continued for another hour. The protein G pellets were then washed five times with 1 ml of ice-cold RIPC:phosphate-buffered saline (1:1, v/v). Thirty μl of sodium dodecyl sulfate-polyacrylamide gel electrophoresis buffer were added to the pellets, and the sample was heated at 87° C. for 3 min. The samples were loaded onto an 10% polyacrylamide gel and run overnight at 40 V. The gel contained Rainbow protein markers (Amersham) for sizing. Gels were fixed with 10% acetic acid plus 10% methanol for 30 min, incubated in DMSO for 30 min, incubated with 10% 2,5-diphenyloxazole in DMSO for 30 min, washed three times with cold water (10 min each), dried and exposed to film.

Test [2] has as its system mda-7. Briefly: mda-7 expression (Northern blotting, RT-PCR). The settings on record: for mda-7 expression: H0-1. How it is done: (§1) The mass excision of the library was performed using ExAssist helper phage as described above. The SOLR strain of Escherichia coli and cDNA phagemids were mixed at 37° C. for 15 min and plated onto LB plates containing ampicillin and IPTG/X-gal. White colonies were chosen at random, isolated and grown in LB medium. Plasmid minireps and restriction enzyme digestions were performed to confirm the presence of inserts. The inserts were isolated and used as robes for Northern blotting analysis (5,25). […] Radiolabeled probes were generated by random oligonucleotide priming (25). Prehybridization, hybridization, posthybridization washes, and autoradiography were performed as described (5,18,25).

Test [3] relates to mda-6. The test is described as follows: mda-6 expression (Northern blotting). How it is done:
as §1
Total cytoplasmic RNA was isolated and Northern blotting hybridization was performed as described (Reddy et al., 1991; Su et al., 1991; Jiang et al., 1992). Ten μg of RNA was denatured with glyoxal/DMSO, electrophoresed on 1.0% agarose gels, transferred to nylon membranes and hybridized to a ^32P-labeled p53 probe (Baker et al., 1990). The nylon membrane was stripped and hybridized to a ^32P-labeled mda-6 probe (Jiang and Fisher, 1993) and then after a second stripping the membrane was hybridized to a ^32P-labeled rat GAPDH probe (Fort et al., 1985), as described previously (Reddy et al., 1991; Su et al., 1991; Jiang et al., 1992). Following hybridization, the filters were washed and exposed for autoradiography (Reddy et al., 1991; Su et al., 1991; Jiang et al., 1992). mda-6 and GAPDH gene expression were also determined by reverse transcription-polymerase chain reaction (RT-PCR) as described (Adollahi et al., 1991; Lin et al., 1994; Jiang et al., 1994b). Total cytoplasmic RNA was treated with 0.5 units DNase (Boehringer-Mannheim Biochemicals)/μg RNA in 15% glycerol, 10 mM Tris, pH 7.5, 2.5 mM MgCl2, 0.1 mM EDTA, 80 mM KCl, 1 mM CaCl2 and 1 unit/ml RNasin (Promega) at 30° C. for 10 min. RNA was extracted with phenol-chloroform, precipitated with sodium acetate/ethanol and RNA pellets were resuspended in diethylpyrocarbonate-treated H2O. One μg of total RNA was reverse transcribed with 200 units of murine leukemia virus reverse transcriptase (Bethesda Research Laboratories) in 20 μl containing 1 mM deoxyribonucleotide triphosphates, 4 mM MgCl2, 10 mM Tris, pH 8.3, 50 mM KCl, 0.001% gelatin and 0.2 μg oligo-dT primer. Samples were adjusted to 100 μl with buffer containing 0.2 mM deoxyribonucleotide triphosphates, 2 mM MgCl2, 10 mM Tris, pH 8.3, 50 mM KCl and 0.001% gelatin. Fifty pmol of each primer, 1.5 units Taq DNA polymerase (Perkin-Elmer Cetus) were added and samples were covered with mineral oil, heated at 95° C. for 5 min and subjected to 25 cycles of PCR in a Perkin-Elmer Thermal Cycler using 1 min denaturation at 94° C., 2 min annealing at 55° C. and 3 min polymerization at 72° C. After extraction with chloroform, 20 μl of products were electrophoresed, blotted onto nylon filters and hybridized with an mda-6 or GAPDH specific probe. The mda-6 primers were 5′ to 3′ […] (SEQ ID NO:26) and […] (SEQ ID NO:27)(corresponding to nt 1527 to 1546) (GenBank accession number U09579); and the GAPDH primers were 5′ to 3′ […] (SEQ ID NO:28)and […] (SEQ ID NO:29)(corresponding to nt 1070 to 1053) (Tokunaga et al., 1987).

The test system of test [4] is mda-5. The test is described as follows: mda-5 expression (Northern blotting). The settings on record: H0-1. How it is done:
as §1

[5] abbreviates: 96 hours, doses of FIG. 15 legend.
The mark [6] stands for this setting: terminally differentiated HL-60 cells, TPA for 2 days, RA for 4 days.
The mark [7] stands for this setting: H0-1, 96 hours, doses of FIG. 15 legend.
Where [8] appears, read: 24 hours, doses of FIG. 19, phenyl butyrate 24 hours, 4 days or 7 days.

With `CC1=C(/C=C/C(C)=C/C=C/C(C)=C/C(=O)O)C(C)(C)CCC1` [RA, trans-retinoic acid], the “time of treatment at which MDA-6 protein is detected” value in test [1] came to 12 h. Moreover, the mda-7 expression result in test [2] (setting [5]) is “does not induce growth changes or induce mda-7 expression”. Besides, the “mda-7 expression (RT-PCR)” value in test [2] (LAN human neuroblastoma cells, 5 days) is reported as “not induced”; in test [2] (setting [6]) it was “persists”. Besides, the mda-6 expression entry in test [3] (setting [7]) is “no significant or reduced alteration in expression”. The mda-5 expression entry in test [4] (setting [5]) is “No change in expression”.

On to `C=C(C)[C@@]12O[C@@]3(c4ccccc4)O[C@@H]1[C@@H]1[C@@H]4O[C@]4(CO)[C@@H](O)[C@]4(O)C(=O)C(C)=C[C@H]4[C@@]1(O3)[C@H](C)[C@H]2OC(=O)/C=C/C=C/c1ccccc1` [MEZ, mezerein], for which the mda-7 expression entry was “increased mda-7 expression” in test [2] (setting [8]) and “Increased expression” in test [2] (setting [5]). Also, the mda-6 expression result in test [3] (H0-1, 24 hours, doses of FIG. 19, phenyl butyrate 24 hours, 4 or 7 days) is “increased expression; also recorded: smaller induction of mda-6 expression”; in test [3] (setting [7]) it was “no significant or reduced alteration in expression”. For the same compound, the mda-5 expression result in test [4] (setting [8]) and in test [4] (setting [5]) was “No change in expression” in each case.

Consider `CCCCCCCCCCCCCC(=O)O[C@@H]1[C@@H](C)[C@@]2(O)[C@@H](C=C(CO)C[C@]3(O)C(=O)C(C)=C[C@@H]23)[C@@H]2C(C)(C)[C@]12OC(C)=O` [TPA, 12-O-tetradecanoyl-phorbol-13-acetate], for which the “time of treatment at which MDA-6 protein is detected” value in test [1] amounted to 12 h. In addition, the “mda-7 expression (RT-PCR)” value in test [2] (HL-60 and U-937 cells) is “induced”; in test [2] (setting [6]) it was “persists”. For the same compound, the mda-6 expression entry in test [3] (human histiocytic lymphoma, U-937, cells, differentiation and growth arrest) is given as “induced”.
